Data: paper PMC6331850, “Evaluation of the Cytotoxicity of Structurally Correlated p-Menthane Derivatives” (Molecules, 2015)

Columns and labels:
Type in all cases: cell-based
[1] = test system: OVCAR-8 (ovarian adenocarcinoma); assay: MTT cytotoxicity assay, OVCAR-8; conditions: Homo sapiens, 25 μg/mL, 72 h incubation, mean of three independent experiments, read-out: Cell growth inhibition percentage, OVCAR-8 IG%
Protocol: (§1) The cytotoxicity of the 18 compounds was tested against OVCAR-8 (ovarian adenocarcinoma), HCT-116 (colon carcinoma), SF-295 (glioblastoma), and HL-60 (leukemia) human cancer cell lines, all obtained from the National Cancer Institute, Bethesda, MD, USA. Cells were grown in RPMI-1640 medium supplemented with 10% fetal bovine serum, 2 mM glutamine, 100 µg/mL streptomycin, and 100 U/mL penicillin, and incubated at 37 °C in a 5% CO2 atmosphere.
(§2) Tumor cell growth was determined by the ability of living cells to reduce the yellow dye 3-(4,5-dimethyl-2-thiazolyl)-2,5-diphenyl-2H-tetrazolium bromide (MTT; Sigma Chemical Co., St. Louis, MO, USA) to a purple formazan product, as described by Mossman. For all experiments, cells were seeded in 96-well plates (0.1 × 10^6 cells/mL in 100 μL medium). After 24 h, the 18 compounds (25 μg/mL), were dissolved in 0.7% dimethyl sulfoxide (DMSO), and were added to each well (three independent experiments, performed in triplicate). Then, the cells were incubated for 72 h at 37 °C in a 5% CO2 atmosphere. The experiment was performed as three independent experiments, using DMSO at 1%, and doxorubicin at […] as negative and positive controls, respectively. Doxorubicin, purity >98%; Sigma Chemical Co.).
(§3) At the end of incubation, the plates were centrifuged, and the medium was replaced by fresh medium (150 μL) containing 0.5 mg/mL MTT. Three hours later, the formazan product was dissolved in 150 μL DMSO, and absorbance was measured using a multiplate reader (DTX 880 Multimode Detector, Beckman Coulter Inc., Packard, ON, Canada). The treatment effects were expressed as the percentage of control absorbance of reduced dye at 595 nm. All absorbance values were converted into a cell growth inhibition percentage (GI%) by the following formula: [GI% = 100 − [(T/C) × 100%] (1) where C is the absorbance for the negative control, and T is the absorbance in the presence of the tested compound. […]

[2] = test system: SF-295 (glioblastoma); assay: MTT cytotoxicity assay, SF-295; conditions: Homo sapiens, 25 μg/mL, 72 h incubation, mean of three independent experiments, read-out: Cell growth inhibition percentage, SF-295 IG%
Protocol: as §1, §2, §3

[3] = test system: HCT-116 (colon carcinoma); assay: MTT cytotoxicity assay, HCT-116; conditions: Homo sapiens, 25 μg/mL, 72 h incubation, mean of three independent experiments, read-out: Cell growth inhibition percentage, HCT-116 IG%
Protocol: as §1, §2, §3

[4] = test system: OVCAR-8, HCT-116, and SF-295 human tumor cell lines; assay: MTT cytotoxicity assay, range over the three tumor cell lines; conditions: Homo sapiens, 72 h, 25 µg/mL, MTT, 72 h; HCT-116, OVCAR-8, SF-295; read-out: GI, range over the three cell lines
Protocol: as §1, §2
At the end of incubation, the plates were centrifuged, and the medium was replaced by fresh medium (150 μL) containing 0.5 mg/mL MTT. Three hours later, the formazan product was dissolved in 150 μL DMSO, and absorbance was measured using a multiplate reader (DTX 880 Multimode Detector, Beckman Coulter Inc., Packard, ON, Canada). The treatment effects were expressed as the percentage of control absorbance of reduced dye at 595 nm. All absorbance values were converted into a cell growth inhibition percentage (GI%) by the following formula: [GI% = 100 − [(T/C) × 100%] (1) where C is the absorbance for the negative control, and T is the absorbance in the presence of the tested compound.
The compounds that caused greater degree of cell growth inhibition and which have not been described in the literature for cytotoxic activity against tumor cell lines were evaluated for their median inhibitory concentration able to induce 50% of maximal effect (IC50). […] In addition, the IC50 was determined against HL-60 only for the most cytotoxic compound 16.

C=C(C)[C@@H]1CC=C(COC(C)=O)CC1 [Compound 17, (−)-Perillyl acetate]
inhibition at 25 µg/mL [1]: 3.06% | inhibition at 25 µg/mL [2]: 16.4% | inhibition at 25 µg/mL [3]: 14.2%

C=C(C)[C@@H]1CC=C(C)[C@H](O)C1 [Compound 7, (−)-cis-carveol]
inhibition at 25 µg/mL [1]: 3.61% | inhibition at 25 µg/mL [2]: 21.2% | inhibition at 25 µg/mL [3]: 9%

CC(C)=C1CC[C@@H](C)CC1=O [Compound 9, (+)-Pulegone]
inhibition at 25 µg/mL [1]: 14.4% | inhibition at 25 µg/mL [2]: 27.4% | inhibition at 25 µg/mL [3]: 10.2%

C=C(C)[C@@H]1CC(=O)[C@@]2(C)O[C@H]2C1 [Compound 5, (−)-Carvone epoxide]
inhibition at 25 µg/mL [1]: 8.21% | inhibition at 25 µg/mL [2]: 10.9% | inhibition at 25 µg/mL [3]: 29.2%

CC1=CC[C@@H](C(C)(C)O)CC1O (single isomer, unassigned; (-)) [Compound 13, (−)-Sobrerol]
inhibition at 25 µg/mL [1]: 41.4% | inhibition at 25 µg/mL [2]: 34.2% | inhibition at 25 µg/mL [3]: 9.78%

C=C(C)[C@@H]1CC=C(CO)CC1 [Compound 14, (S)-(−)-perillyl alcohol]
inhibition at 25 µg/mL [1]: 91.7% | inhibition at 25 µg/mL [2]: 90.9% | inhibition at 25 µg/mL [4]: 90.9 to 95.8% | inhibition at 25 µg/mL [3]: 95.8%

C=C(C)[C@@H]1CC=C(C)C(=O)C1 [Compound 1, (−)-Carvone]
inhibition at 25 µg/mL [1]: 2.28% | inhibition at 25 µg/mL [2]: 12.3% | inhibition at 25 µg/mL [3]: 11.9%

C=C(C)[C@H]1CC=C(C)C(=O)C1 [Compound 2, (+)-Carvone]
inhibition at 25 µg/mL [1]: 48.1% | inhibition at 25 µg/mL [2]: 34.4% | inhibition at 25 µg/mL [4]: < 50% | inhibition at 25 µg/mL [3]: 46.1%

COc1cccc2c1C(=O)c1c(O)c3c(c(O)c1C2=O)C[C@@](O)(C(=O)CO)C[C@@H]3O[C@H]1C[C@H](N)[C@H](O)[C@H](C)O1 [Doxorubicin, reference compound]
inhibition at 25 µg/mL [1]: 100% | inhibition at 25 µg/mL [2]: 99.6% | inhibition at 25 µg/mL [3]: 99.2%
